Test results: article PMC10671715, “Self-Entrapment of Antimicrobial Peptides in Silica Particles for Stable and Effective Antimicrobial Peptide Delivery System” (International Journal of Molecular Sciences, 2023)
Where two headings read alike, the source gives them in different places. Marks after values point to notes of the source that are not given here.

Tests used:
E. coli = format: cell-based, Escherichia coli (wild type W2110); details: 18 h
Procedure: (§1) Two Gram-negative bacterial strains, namely Escherichia coli (wild type W2110) and Pseudomonas aeruginosa (wild type PK01) and Gram-positive strain, […] (ATCC 29213) were obtained from the Department of Biotechnology and Bioinformatics at Korea University.
(§2) The broth microdilution assay was used to test the antimicrobial activity of AMPs, as previously reported. Briefly, bacteria were grown to mid-logarithmic growth phase in Mueller Hinton Broth (MHB) media at 37 °C. Then, in 96-well plates, 50 µL of peptide solution (0–320 µM) diluted using a 2-fold serial dilution method was mixed with an equal volume of bacterial solution (3 × 10^6 CFU/mL) and incubated for 18 h at 37 °C with shaking at 200 rpm. The negative control was the culture medium itself. […] The assay was performed in triplicate.

P. aeruginosa = format: cell-based, Pseudomonas aeruginosa (wild type PK01); details: 18 h
Procedure: as §1, §2

S. aureus [1] = format: cell-based, Staphylococcus aureus (ATCC 29213); details: 18 h
Procedure: as §1, §2

[2] = tested on: sheep red blood cells (RBCs); experiment: Hemolytic activity assay; format: cell-based; details: at 77.5 μM (free peptides: up to 77.5 μM); 37 °C, 1 h, A570, 100% = 1% Triton X-100; N = 3
Procedure: Free peptides and silica particles loaded with them (AMP@Si) were compared for their cytotoxicity against mouse macrophages (Raw264.7 cells) and their hemolytic activity against RBCs. Free AMP or AMP@Si was added to each well of a 96-well plate in 2-fold serial dilutions to 50 μL with DMEM medium containing 10% FBS and 1% antibiotics. Raw264.7 macrophages at a concentration of 4 × 10^4 cells per 50 μL were added to the wells containing the peptide to give a final volume of 100 μL. Cell proliferation was confirmed by MTS assay (Promega, Madison, WI, USA) after 24 h or 5 days of incubation. The MTS tetrazolium compound was reduced by viable cells to generate a colored formazan product. […] To calculate cell viability, the absorbance of cells treated with the peptide was divided by the absorbance of cells that were not treated with the peptide. The resulting quotient was then expressed as a percentage. […] The supernatant (100 μL) was collected after centrifugation at 1000× g for 5 min, and the absorbance (A) was measured at 570 nm. The value of “zero hemolysis” was determined by the absorbance of PBS alone, and 100% hemolysis was determined by the absorbance of the supernatant obtained from 1% (v/v) Triton X-100-treated RBCs. The percentage of hemolysis was calculated as hemolysis (%) = (AAMP − APBS)/(ATriton − APBS) × 100. […]

[3] = tested on: E. coli (after trypsin treatment of AMP); experiment: Residual antibacterial activity after trypsin treatment; details: 300 μM in 1× PBS, 0.025% trypsin, 37 °C, 3 min, stopped with FBS; overnight culture, OD600; N = 3
Procedure: (§3) The absorbance value of the bacteria in the absence of AMP was used as the negative control. The absorbance value of the bacteria grown in the presence of trypsinized AMP was subtracted from that of the negative control, and the resulting difference was expressed as a percentage fraction of the negative control, yielding the residual antibacterial activity of AMP after trypsin treatment (Figure 6a).
(§4) Free AMP or AMP@Si was dissolved in 1 × PBS at a concentration of 300 μM and left at 37 °C for 3 min in the presence of 0.025% trypsin, followed by the addition of fetal bovine serum (FBS) to stop the activity of trypsin. Bacteria were incubated overnight with each trypsinized peptide formula, and broth absorbance was measured at 600 nm. As a negative control, the absorbance of the strain grown in the absence of the peptide was set. To determine the remaining antimicrobial activity of AMP after treatment of trypsin, the absorbance of the sample treated with AMP was subtracted from the absorbance of the negative control. The resulting difference was then expressed as a percentage of the absorbance of the negative control.
(§5) (a) The residual antibacterial activity was calculated by taking the difference in optical density at 600 nm between the negative control and the sample containing the trypsinized AMP. It was then divided by the optical density of the negative control and multiplied by 100. Each bacterial solution grown in a medium without AMP is used as a corresponding negative control. […] The image is a 10,000× magnification, the inside image is a 20,000× magnification, and the scale bar represents 1 µm.

[4] = tested on: P. aeruginosa (after trypsin treatment of AMP); experiment: as above; details: 300 μM in 1× PBS, 0.025% trypsin, 37 °C, 3 min, stopped with FBS; overnight culture, OD600; N = 3
Procedure: as §3, §4, §5

[5] = tested on: S. aureus (after trypsin treatment of AMP); experiment: as above; details: 300 μM in 1× PBS, 0.025% trypsin, 37 °C, 3 min, stopped with FBS; overnight culture, OD600; N = 3
Procedure: as §3, §4, §5

Raw264.7 cells = experiment: Cytotoxicity, MTS assay; format: cell-based, mouse; details: for Cell viability: 24 h, MTS, N = 3
Procedure: Free peptides and silica particles loaded with them (AMP@Si) were compared for their cytotoxicity against mouse macrophages (Raw264.7 cells) and their hemolytic activity against RBCs. Free AMP or AMP@Si was added to each well of a 96-well plate in 2-fold serial dilutions to 50 μL with DMEM medium containing 10% FBS and 1% antibiotics. Raw264.7 macrophages at a concentration of 4 × 10^4 cells per 50 μL were added to the wells containing the peptide to give a final volume of 100 μL. Cell proliferation was confirmed by MTS assay (Promega, Madison, WI, USA) after 24 h or 5 days of incubation. The MTS tetrazolium compound was reduced by viable cells to generate a colored formazan product. The intensity of the color at 490 nm is proportional to the number of viable cells in the sample. To calculate cell viability, the absorbance of cells treated with the peptide was divided by the absorbance of cells that were not treated with the peptide. The resulting quotient was then expressed as a percentage. […] The supernatant (100 μL) was collected after centrifugation at 1000× g for 5 min, and the absorbance (A) was measured at 570 nm. The value of “zero hemolysis” was determined by the absorbance of PBS alone, and 100% hemolysis was determined by the absorbance of the supernatant obtained from 1% (v/v) Triton X-100-treated RBCs. The percentage of hemolysis was calculated as hemolysis (%) = (AAMP − APBS)/(ATriton − APBS) × 100.
Figure 7 The hemolytic activity and cytotoxicity of AMPs. […] (b) The cytotoxicity of AMP was measured 24 h after the addition of each indicated concentration of AMP to Raw264.7 cells grown overnight. Cell survival is expressed as a percentage of the negative control grown without AMP.
Figure S4. […] The cytotoxicity of AMP was measured 5 days after incubation of Raw 264.7 cells (4 x 10^5 cells/ mL) in the presence of each indicated concentration of AMP Cell survival was expressed as a percentage of the negative control grown without AMP. […]

S. aureus [6] = tested on: S. aureus; design: method as in PMID 33236626; details: cited from earlier work
[7] = free peptide, MHB, 2-fold dilution 0–320 µM, 37 °C, OD600, mean ± standard error of three replicate experiments

For CC(=O)N[C@@H](CCCNC(=N)N)C(=O)N[C@@H](CCCCN)C(=O)N[C@@H](CCCCN)C(=O)N[C@@H](CCCNC(=N)N)C(=O)N[C@@H](CCCNC(=N)N)C(=O)N[C@@H](CCC(N)=O)C(=O)N[C@@H](CCCNC(=N)N)C(=O)N[C@@H](CCCNC(=N)N)C(=O)N[C@@H](CCCNC(=N)N)C(N)=O, the entrapment efficiency (EE) was 95%.

For “Ac-KRIVQRIKDFLR-NH2 [KR12, reference compound]”, the “Minimum inhibitory concentration (MIC)” value (E. coli) was 103.36 ± 25.82 µM, the “Minimum inhibitory concentration (MIC)” value (P. aeruginosa) was 181.98 ± 68.20 µM and the “Minimum inhibitory concentration (MIC)” value (S. aureus [1]) was >320 ^a µM. For the same compound, the Hemolysis [2] was “less than 1%”.

With “Ac-RKKRRQRRRGSSKRIVQRIKDFLR-NH2 [CPP-KR12]” the “Minimum inhibitory concentration (MIC)” value (E. coli; [7]) was 12.09 ± 4.97 µM, the “Minimum inhibitory concentration (MIC)” value (P. aeruginosa; [7]) was 6.12 ± 3.72 µM and the “Minimum inhibitory concentration (MIC)” value (S. aureus [1]; [7]) was 22.80 ± 8.48 µM. For the same compound, the “Residual antibacterial activity after trypsin treatment” value (shortened to “Residual antibacterial activity”) [3] was “approximately 10%”, the “Residual antibacterial activity” value [4] was “approximately 15%” and the “Residual antibacterial activity” value [5] was “approximately 15%”. The Hemolysis [2] was “less than 1%”, the Cytotoxicity (Raw264.7 cells; 6 µM) was “not cytotoxic” and the Cell viability (Raw264.7 cells; 19.38 μM) was 80%. It also gave a Cell viability (Raw264.7 cells; 77.5 μM) of 10% and an entrapment efficiency (EE) of 95%.

For “YGRKKRRQRRKRIVQRIKDFLR [TAT-KR-12, literature peptide developed for treatment of intracellular S. aureus infection]”, the “Antibacterial activity against S. aureus” value (S. aureus [6]) is given as “enhanced antibacterial activity”.
